Usually Kd stands for the concentration at which binding is half-saturated. A higher Kd goes with weaker binding.

The target of assay [1] is T1, CA-IX (Homo sapiens, UniProt Q16790).
T1 construct: His tag (C); purchased R&D Systems Inc. 2188-CA; host or cells: mouse myeloma cell line NS0
Kind of assay: CA-IX combinatorial library screening, competitive fluorescence-based assay with dansylamide (DNSA). The assay is classed as binding. As to conditions: Table 1, Libraries 1-3; sample concentrations 100 nM and 1000 nM, DNSA 200 μM; screening at 1 μM. The method, boiled down: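 Recombinant His-tagged CA-IX (NS0-expressed) in phosphate buffer pH 7.4 with test compound at 100 nM or 1000 nM; competitive displacement started with 200 μM dansylamide (stock concentration). After 1 h at 25 °C, fluorescence read at 460 nm (excitation 290 nm).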

The target in assay [2] is T1, CA-IX. Kind of assay: Binding affinity (Kd) determination for CA-IX inhibitors, DNSA fluorescence competition assay, Scatchard plots. To be noted: Table 3. As for the experimental part:
General. […] The human red blood cells were obtained from Research Blood Components, LLC. All absorbance measurements were performed on a SPECTRA MAX M2 plate reader at 25° C. The LC/MS analyses were performed on an Agilent 1100 series LC/MSD (SL) using a 30×2.1 mm Zorbax C8 column with a Phenomenex C18 pre-column. Compound detection was accomplished by electrospray mass spectroscopy in positive selected ion mode (LC/MS-SIM). The elution solvents were acetonitrile and water, contained 0.05% TFA. Nuclear magnetic resonance (NMR) spectra were obtained on a Bruker AMX 300 MHz spectrometer or a Varian 400. 19F NMR spectra were recorded on a Bruker AMX 282.35 MHz or a Varian 400 spectrometer. The mass spectra were recorded on an Agilent 1100 series LC/MSD with electrospray mass spectroscopic detection. Flash column chromatography was performed on Merck silica gel (40-63 μm) using the solvent system indicated. The radiochemical and chemical purities were analyzed by RP-HPLC.
General Procedure of Binding Affinity (Ka) Determination for CA-IX Inhibitors
The assay was based on the observation that the only fluorescence signal detected at 460 nm upon excitation at 290 nm, an absorption […] for DNSA, was that of the DNSA.CA complex. […] The latter were developed for each test compound using mass balance for calculating the concentration of CA bound to DNSA [DNSA.CA], bound to the non-fluorescent sample [CA.Inh] and free CA [CA] in solution. The Kd values were determined from Scatchard plots using the equation below as described by Whitesides et al. [CA.Inh]/[CA]tot.[Inh]=K11^inh−K11^inh{[CA.Inh]+[CA.DNSA]}/([CA]tot)
The terms [CA.DNSA], [CA.Inh], and free CA were calculated using the mass balance based on the known values for the dissociation constant of CA.DNSA and the total concentration of CA in each reaction.

In the case of `CC(C)[C@H](C(=O)NCc1ccco1)n1cc(-c2ccc(S(N)(=O)=O)cc2)nn1` (stereo in doubt) [DHK25], the “In Vitro Binding Assay (Library Screening)” value (from here on “In Vitro Binding Assay”) on CA-IX [1] was “√ √”. On CA-IX [2], the equilibrium dissociation constant (Kd) was 5 nM. As to `Cc1ccnc(NC(=O)[C@H](Cc2ccccc2)n2cc(-c3ccc(S(N)(=O)=O)cc3)nn2)c1` [DHK7], the “In Vitro Binding Assay” value on CA-IX [1] is “√”. The molecule further had a dissociation constant Kd on CA-IX [2] of 17 nM. The corresponding values for `NS(=O)(=O)c1ccc(-c2cn(Cn3c(=S)sc4ccccc43)nn2)cc1` [DHK19] are “√” and 14 nM. Regarding `NS(=O)(=O)c1ccc(-c2cn(Cn3nnc4ccccc43)nn2)cc1` [DHK29], the “In Vitro Binding Assay” value at CA-IX [1] is “√”. For the same molecule, binding on CA-IX [2] was put at a Kd of 20 nM. As for `COC(=O)[C@@H](CSCc1cccc(OCCF)c1)NC(=O)[C@H](CCO)n1cc(COc2ccc3nc(S(N)(=O)=O)sc3c2)nn1` [VM2-106, (S)-methyl 3-(3-(2-fluoroethoxy)benzylthio)-2-(S)-4-hydroxy-2-(4-((2-sulfamoylbenzo[d]thiazol-6-yloxy)methyl)-1H-1,2,3-triazol-1-yl)butanamido) propanoate], binding at CA-IX [2] was put at a Kd of 5 nM. With `COC(=O)[C@H](C[S+]([O-])Cc1cccc(OCCF)c1)NC(=O)Cn1cc(COc2ccc3sc(S(N)(=O)=O)nc3c2)nn1` (stereo partly drawn) [VM2-126, ((2S)-methyl 3-(3-(2-fluoroethoxy)benzylsulfinyl)-2-(2-(4-((2-sulfamoylbenzo[d]thiazol-6-yloxy)methyl)-1H-1,2,3-triazol-1-yl)acetamido) propanoate], the Kd on CA-IX [2] stood at 10 nM. With `N[C@@H](CO)C(=O)NCCOc1cccc(COC[C@H](NC(=O)Cn2cc(COc3ccc4nc(S(N)(=O)=O)sc4c3)nn2)C(=O)O)c1` [VM3-163, (S)-3-(3-(2-((S)-2-amino-3-hydroxypropanamido)ethoxy)benzyloxy)-2-(2-(4-((2-sulfamoylbenzo[d]thiazol-6-yloxy)methyl)-1H-1,2,3-triazol-1-yl)acetamido)propanoic acid], at CA-IX [2], the equilibrium dissociation constant (Kd) came to 10 nM.

With `NS(=O)(=O)c1nc2ccc(OCc3cn(CC(=O)N[C@@H](Cc4ccc(OCCO)cc4)C(=O)O)nn3)cc2s1` [VM4009, (S)-3-(4-(2-hydroxyethoxy)phenyl)-2-(2-(4-((2-sulfamoylbenzo[d]thiazol-6-yloxy)methyl)-1H-1,2,3-triazol-1-yl)acetamido)propanoic acid], the dissociation constant Kd at CA-IX [2] came out at 5 nM. `CC(C)[C@@H](C(=O)N[C@@H](Cc1ccc(OCCO)cc1)C(=O)O)n1cc(COc2ccc3nc(S(N)(=O)=O)sc3c2)nn1` [VM4021, (S)-3-(4-(2-hydroxyethoxy)phenyl)-2-((S)-3-methyl-2-(4-((2-sulfamoylbenzo[d]thiazol-6-yloxy)methyl)-1H-1,2,3-triazol-1-yl)butanamido)propanoic acid] gave a dissociation constant (Kd) on CA-IX [2] of 3.3 nM. On to `CC(C)[C@@H](C(=O)N[C@@H](Cc1ccc(OCCF)cc1)C(=O)O)n1cc(COc2ccc3nc(S(N)(=O)=O)sc3c2)nn1` [VM4037a, (S)-3-(4-(2-fluoroethoxy)phenyl)-2-((S)-3-methyl-2-(4-((2-sulfamoylbenzo[d]thiazol-6-yloxy)methyl)-1H-1,2,3-triazol-1-yl)butanamido) propanoic acid], for which the dissociation constant Kd on CA-IX [2] is 1.3 nM. In turn, `CC(C)[C@H](C(=O)N[C@@H](Cc1ccc(OCCF)cc1)C(=O)O)n1cc(COc2ccc3nc(S(N)(=O)=O)sc3c2)nn1` [VM4037b] returned a Kd on CA-IX [2] of 5 nM. Molecule `NS(=O)(=O)c1nc2ccc(OCc3cn(CC(=O)N[C@@H](Cc4ccc(OCC(O)CF)cc4)C(=O)O)nn3)cc2s1` (stereo partly drawn) [VM4041, (S)-3-(4-(3-fluoro-2-hydroxypropoxy)phenyl)-2-(2-(4-((2-sulfamoylbenzo[d]thiazol-6-yloxy)methyl)-1H-1,2,3-triazol-1-yl)acetamido)propanoic acid] yielded a Kd at CA-IX [2] of 5 nM.

In turn, `NS(=O)(=O)c1nc2cc(OCc3cn(CC(=O)NCCCOCCOCCOCCCNC(=O)c4ccc(C(=O)O)c(-c5c6ccc(=O)cc-6oc6cc(O)ccc56)c4)nn3)ccc2s1` [WZ01101] had a Kd at CA-IX [2] of 14 nM.

For the origin of these results see patent publication US7829063B2, “Development of molecular imaging probes for carbonic anhydrase-IX using click chemistry” (Siemens Medical Solutions USA, Inc., priority 2007, dated 2010).
